This note sets out measurements from patent publication US20040180959A1, “Gabapentin analogues for fibromy algia and concomitant disorders” (priority 2002, published 2004).

Molecules are shown by their SMILES.

For this test, the system named is Sprague-Dawley rats. The test can be described thus: Rat model of footpad tactile allodynia from prior injection of acid into the gastrocnemius muscle. Type of test: in vivo. To be noted: for Mean Paw Withdrawal Threshold before dose (g ± S.E.M.): after acid injection. As to the method:
A rat model of persistent mechanical allodynia has been developed that is consistent with the muscle tenderness found in these patients. […] This model was utilized to evaluate compound A for its ability to inhibit allodynia.
On Day 0, male Sprague-Dawley rats (˜200 g body weight) in their dark cycle were placed in suspended wire-bottom cages and allowed to acclimate for 0.5 hours. […] Von Frey hairs were applied to the plantar surface for up to 6 seconds, and a flinching of the paw during that time frame was considered a positive response. After assessment, the right gastrocnemius muscle was shaved, swabbed with alcohol, and injected with 0.1 mL of 0.9% NaCl solution acidified to pH 4 with HCl. The injection was repeated on Day 5. Animals were manipulated with a dynamic plantar aesthesiometer (Ugo Basile, Comerio-Varese, Italy) on Days 6, 7, and 8 to facilitate induction of the allodynia. To screen the rats for the development of allodynia, the 15.1 g Von Frey hair was applied to the ipsilateral paw on Day 11. Positive responders from that test were included in the compound evaluation study. On Day 12 (the day of peak allodynia), animals were assigned into treatment groups, and then their ipsilateral paw withdrawal thresholds were determined to establish the allodynia (reduction in paw withdrawal threshold) compared to baseline values. Rats were then orally dosed with 10 mL/kg vehicle (0.5% hydroxypropyl-methylcellulose/0.2% Tween 80) or the indicated dose of compound A. Paw withdrawal thresholds were reassessed by Von Frey hairs in blinded fashion 2 hours after dosing for the dose-response study, and 2, 5, 8, and 24 hours after dosing in the time course experiment. The inhibition of allodynia was determined for each animal by dividing the increase in paw withdrawal threshold after treatment by the difference between baseline and pretreatment paw withdrawal values. This fraction was then converted to percent inhibition by multiplying by 100.

Where [1] appears, read: 10 mg/kg oral, 2 hours after treatment (Table II).
The mark [2] stands for this setting: 10 mg/kg oral, 2 hr after dose (Table I).
The mark [3] stands for this setting: 10 mg/kg oral, 5 hours after treatment.
Where [4] appears, read: 10 mg/kg oral, 8 hours after treatment.
[5] abbreviates: 10 mg/kg oral, 24 hours after treatment.

As to `C[C@H]1CC(CN)(CC(=O)O)C[C@@H]1C` [Compound A, (3S, 4S)-(1-Aminomethyl-3,4-dimethyl-cyclopentyl)-acetic acid], the “Mean Paw Withdrawal Threshold before dose (g ± S.E.M.)” value reads like this: (3 mg/kg group, before oral dose) 6.3 ± 0.8 g; (10 mg/kg group, before oral dose (Table I)) 6.2 ± 1.0 g. Also, the “Mean % Inhibition of Allodynia” value runs as follows: (3 mg/kg oral, 2 hr after dose) 33%; under setting [1], 60% ± 10; under setting [2], 72%; under setting [3], 62% ± 10; under setting [4], 31% ± 12; under setting [5], 46% ± 17. For the same compound, the “Mean Paw Withdrawal Threshold 2 hr after dose (g ± S.E.M.)” value is, setting by setting: (3 mg/kg oral, 2 hr after dose) 11.4 ± 1.7 g; under setting [2], 17.4 ± 1.5 g. Besides, where the note is “10 mg/kg group, Prior to Treatment (Table II)”, the “Mean Paw Withdrawal Threshold (g ± S.E.M.)” value worked out at 6.5 ± 0.9 g. In addition, the “Efficacy sustained throughout observation period after dosing” value (10 mg/kg oral) is no less than 24 h. In addition, the “Mean Paw Withdrawal Threshold after treatment (g ± S.E.M.)” value was determined as 16.0 ± 1.4 g under setting [1], 15.2 ± 1.8 g under setting [3], 9.9 ± 2.0 g under setting [4] and 13.3 ± 2.8 g under setting [5]. For the setting “oral, 2 hours after dosing”, the “Minimum effective dose for attenuating allodynia” value is recorded as 10 mg/kg.
